From US6395766B1, “Tetrahydroindolone derivatives as gabaaalpha5 ligands for enhancing cognition” (Merck Sharp & Dohme Limited, priority 1998, dated 2002)

melting point | SMILES
160 to 162 °C | CC1(C)CC(=O)c2c(-c3ccccc3)cn(-c3ccccn3)c2C1 [Example 16, 6,6-Dimethyl-3-phenyl-1-(pyridin-2-yl)-4,5,6,7-tetrahydroindol-4-one]
180 to 183 °C | CC1(C)CC(=O)c2c(Nc3ccccn3)cn(-c3ccccn3)c2C1 [Example 23, 6,6-Dimethyl-1-(pyridin-2-yl)-3-(pyridin-2-ylamino)-4,5,6,7-tetrahydroindol-4-one]
58 to 60 °C | CCc1cn(-c2nccs2)c2c1C(=O)CC(C)(C)C2 [Example 5, 6,6-Dimethyl-3-ethyl-1-(thiazol-2-yl)-4,5,6,7-tetrahydroindol-4-one]
125 to 127 °C | CCc1cn(-c2ccccn2)c2c1C(=O)CC(C)(C)C2 [Example 1, 6,6-Dimethyl 3-Ethyl-1-(pyridin-2-yl)-4,5,6,7-tetrahydroindol-4-one]
111 to 113 °C | CC1(C)CC(=O)c2c(Cc3ccccc3)cn(-c3ccccn3)c2C1 [Example 19, 6,6-Dimethyl-3-phenylmethyl-1-(pyridin-2-yl)-4,5,6,7-tetrahydroindol-4-one]
143 to 145 °C | CC1(C)CC(=O)c2c(C(C)(C)C)cn(-c3ccccn3)c2C1 [Example 2, 6,6-Dimethyl-3-(1,1-dimethylethyl)-1-(pyridin-2-yl)-4,5,6,7-tetrahydroindol-4-one]
111 to 114 °C | CCc1cn(-c2ncccn2)c2c1C(=O)CC(C)(C)C2 [Example 4, 3-Ethyl-6,6-dimethyl-1-(pyrimidin-2-yl)-4,5,6,7-tetrahydroindol-4-one]
166 to 168 °C | CC1(C)CC(=O)c2c(-c3nccs3)cn(-c3ccccn3)c2C1 [Example 15, 6,6-Dimethyl-1-(pyridin-2-yl)-3-(thiazol-2-yl)-4,5,6,7-tetrahydroindol-4-one]
167 to 169 °C | CC1(C)CC(=O)c2c(-c3cncs3)cn(-c3ccccn3)c2C1 [Example 21, 6,6-Dimethyl-1-(pyridin-2-yl)-3-(thiazol-5-yl)-4,5,6,7-tetrahydroindol-4-one]
171 to 174 °C | CC1(C)CC(=O)c2c(-c3ccccn3)cn(-c3ccccn3)c2C1 [Example 17, 6,6-Dimethyl-1-(pyridin-2-yl)-3-(pyridin-2-yl)-4,5,6,7-tetrahydroindol-4-one]
135 to 138 °C | CC1(C)CC(=O)c2c(Nc3ccccc3)cn(-c3ccccn3)c2C1 [Example 22, 6,6-Dimethyl-3-phenylamino-1-(pyridin-2-yl)-4,5,6,7-tetrahydroindol-4-one]
190 to 192 °C | CC1(C)CC(=O)c2c(SCc3ccccc3)cn(-c3ccccn3)c2C1 [Example 14, 6,6-Dimethyl-3(phenylmethyl)thio-1-(pyridin-2-yl)-4,5,6,7-tetrahydroindol-4-one]
150 to 154 °C | C=Cc1cn(-c2ccccn2)c2c1C(=O)CC(C)(C)C2 [Example 18, 6,6-Dimethyl-1-(pyridin-2-yl)-3-vinyl-4,5,6,7-tetrahydroindol-4-one]
